“And” between values parts separate entries of the source, which are not always exact repeats. Identical values can stand only once. Like-named read-outs stand apart in the source and are kept apart here.
Legend:
S. aureus DNA gyrase = S. aureus DNA gyrase (Staphylococcus aureus, UniProt P0A0K8); experiment: DNA gyrase ATPase assay; conditions: solid forms, Table 27a
[1] = tested on: Staphylococcus aureus ATCC 29213; experiment: microbe, parasite or virus in culture; assay type: cell-based; conditions: Protocol 1
E. coli DNA Topo IV = experiment: E. coli enzyme ATPase inhibition assay (Table 27b); assay type: biochemical; conditions: E. coli DNA Topo IV (table title), solid forms
Haemophilus influenzae = experiment: Gyrase MIC determination against Gram negatives using microdilution broth method (Protocol 2); assay type: cell-based; conditions: Haemophilus influenzae Rd0894 (AcrA-)
Experimental: (§1) Compounds of this invention were tested for antimicrobial activity by susceptibility testing in liquid media. […] The specific protocols used were as follows:
(§2) Protocol 2: Gyrase MIC Determination of Compounds Against Gram Negatives Using Microdilution Broth Method
(§3) Strains (MHII Media for all; Broth and Agar): • 1. Escherichia coli AG100 WT • 2. Escherichia coli AG100 tolC • 3. […] Haemophilus influenzae Rd0894 (AcrA−)
(§4) Inoculum Prep: • 1. Using the BBL Prompt kit, picked 5 big or 10 small, well separated colonies from cultures grown on agar medium and inoculated 1 mL sterile saline that came with the kit. • 2. Vortexed the wells for ˜30 s to give a suspension of ˜10^8 cells/mL. Actual density could be confirmed by plating out dilutions of this suspension. • 3. Diluted the suspension 1/100 by transferring 0.15 mL of cells into 15 mL (˜10^6 cells/mL) sterile broth (see below) for each plate of compounds tested, swirled to mix. […] Used 50 μl cells (˜5×10^4 cells) to inoculate each microtiter well containing 50 μl of the drug diluted in broth (see below).
(§5) Drug Dilutions, Inoculation, MIC Determination: • 1. […] Diluted drug/compound stocks to 200× desired final concentration in 50 μL DMSO. If starting concentration of MICs was 8 μg/mL final concentration, then required 6.25 μL of stock+43.75 μL DMSO. Each 200× stock was placed in a separate row of column 1 of a new 96 well microtiter plate. • 3. Added 25 μL of DMSO to columns 2-12 of all rows of the microtiter plate containing 200× compound stocks and serially diluted 25 μL from column 1 through column 11, changed tips after each column. i.e. 25 μL compound+25 μL DMSO=2× dilution. Left “no compound” DMSO well at the end of the series for control. • 4. For each strain tested, prepared two microtiter plates with 50 μL of MHII broth using a Matrix pipettor. • 5. Transferred 0.5 μL of each dilution (w/Matrix auto-pipettor) to 50 μL of medium/microtiter well prior to the addition of 50 μl of cells. The usual starting concentration of compound was 8 μg/mL after the 1/200 dilution into medium+cells−compound concentrations decreased in 2× steps across the rows of a microtiter plate. All MICs were done in duplicate. • 6. All wells were inoculated with 50 μl of diluted cell suspension (see above) to a final volume of 100 μl. • 7. After inoculum was added, each well was mixed thoroughly with a manual multichannel pipettor; same tips were used going from low to high concentration of drug in the same microtiter plate. • 8. Plates were incubated at 37° C. for at least 18 hours. • 9.
(§6) Examined the test plates after the correct incubation time and read the MIC endpoint at the concentration where a marked reduction occurred in the appearance of growth on the test plate as compared to that of growth on the positive control plates.

Escherichia coli AG100 = experiment: as above; assay type: cell-based
Experimental: as §1, §2, §3, §4, §5, §6

[2] = Stability of the solid forms (net increase in total impurities at 40 C/30% RH); assay type: physicochemical
[3] = Vapor sorption (DVS) of free forms; assay type: physicochemical
Experimental: In one embodiment, the hydrated Free Form A may be converted to anhydrous Free Form B of the compound by equilibrating in a low humidity environment. […] Upon dehydrating hydrated Free Form A, a corresponding anhydrous Free Form B may be obtained. […] Whether the hydrated Free Form A could absorb additional water is not known at this time. […] At 25° C., the critical humidity for conversion is around 40% (see vapor sorption experiment). […] Humidity was then changed by 5% increments until 95% RH was achieved using the same limiting conditions. The reverse steps were executed on the desorption side from 95% down to 5% RH, while always maintaining 25° C. temperature.

[4] = tested on: Enterococcus faecium ATCC 49624; experiment: Gyrase MIC determination using microdilution broth method (Protocol 1); assay type: cell-based
S. aureus DNA Topo IV = S. aureus DNA Topo IV (Staphylococcus aureus, UniProt P0C1S7); experiment: DNA Topo IV ATPase assay; assay type: biochemical; conditions: solid forms, Table 27c
Experimental: The conversion of ATP to ADP by S. aureus TopoIV enzyme was coupled to the conversion of NADH to NAD+, and the progress of the reaction was measured by the change in absorbance at 340 nm. TopoIV (64 nM) was incubated with the selected compound (3% DMSO final) in buffer for 10 minutes at 30° C. The buffer consisted of 100 mM Tris 7.5, 1.5 mM MgCl2, 200 mM K·Glutamate, 2.5 mM phosphoenol pyruvate, 0.2 mM NADH, 1 mM DTT, 5 ng/mL linearized DNA, 50 ng/mL BSA, 30 ng/mL pyruvate kinase, and 10 ng/mL lactate dehyrodgenase (LDH). The reaction was initiated with ATP, and rates were monitored continuously for 20 minutes at 30° C. on a Molecular Devices SpectraMAX plate reader. The inhibition constant, Ki, and the IC50 were determined from plots of rate vs. concentration of selected compound fit to the Morrison Equation for tight binding inhibitors.

[5] = tested on: M. tuberculosis ATCC 35801 (strain Erdman); experiment: Mouse M. tuberculosis (Erdman) 28 day lung infection model; assay type: in vivo, M. tuberculosis; host Balb/c mice; conditions: 28 days; for Log Reduction vs. Early Control / Median Lung Burden / Log Reduction vs. Late Control: Table 23b
[6] = Monkey oral pharmacokinetic study; assay type: in vivo, cynomolgus monkeys; conditions: 0.5% MC, plasma analyte
Text: (§7) Plasma concentration vs. time data was subjected to noncompartmental pharmacokinetic (PK) analysis.

[7] = Rat IV pharmacokinetic study; conditions: D5W, plasma analyte
[8] = Rat oral pharmacokinetic study; assay type: in vivo, Sprague Dawley rats; conditions: plasma analyte; for AUC: male, Sprague Dawley, plasma, po, read-out: AUCextrap
Text: as §7

[9] = Pharmacokinetic studies: in vivo conversion of prodrug; conditions: in at least rats, dogs and monkeys
Experimental: The pharmacokinetic parameters of selected compounds of this invention were determined in the experiments described below. General analytic procedures and specific experimental protocols were employed as follows: […]

[10] = Monkey IV pharmacokinetic study; conditions: Compound W IV 5 mg/kg, D5W, plasma analyte
[11] = tested on: Enterococcus faecalis ATCC 29212; experiment: Gyrase MIC determination using microdilution broth method (Protocol 1); assay type: cell-based; conditions: Enterococcus faecalis ATCC 29212, with 3% Laked Horse Blood
[12] = Staphylococcus aureus ATCC 29213
[13] = Staphylococcus aureus ATCC 29213 with 50% Mouse Serum
[14] = Enterococcus faecium ATCC 49624 with 3% Laked Horse Blood

CCNC(=O)Nc1nc2cc(-c3cnc(C(C)(C)OP(=O)(O)O)nc3)c(F)c([C@H]3CCCO3)c2[nH]1 [Form B, (R)-2-(5-(2-(3-ethylureido)-6-fluoro-7-(tetrahydrofuran-2-yl)-1H-benzo[d]imidazol-5-yl)pyrimidin-2-yl)propan-2-yl dihydrogen phosphate]
Ki (S. aureus DNA gyrase): < 25 nM | MIC [1, 12]: 4 µg/mL | MIC [1, 13]: 1 µg/mL | Ki (E. coli DNA Topo IV): < 6 nM | MIC (Haemophilus influenzae): 0.25 µg/mL | MIC (Escherichia coli AG100; Escherichia coli AG100 WT): 2 µg/mL | MIC (Escherichia coli AG100; Escherichia coli AG100 tolC): 2 µg/mL | Net % increase in total impurities ([2]; 17 days, listed as B): 0.16% | critical humidity for conversion of Free Form B back to Free Form A ([3]; At 25° C.): around 40% | MIC [4, 14]: 4 µg/mL | Ki (S. aureus DNA Topo IV): 10 nM

CCNC(=O)Nc1nc2cc(-c3cnc(C(C)(C)OP(=O)([O-])[O-])nc3)c(F)c([C@H]3CCCO3)c2[nH]1.[Na+].[Na+] [Compound W, disodium (R)-2-(5-(2-(3-ethylureido)-6-fluoro-7-(tetrahydrofuran-2-yl)-1H-benzo[d]imidazol-5-yl)pyrimidin-2-yl)propan-2-yl phosphate]
Log Reduction vs. Early Control ([5]; 10 mg/kg BID oral gavage): 0.64 Log | Median Lung Burden ([5]; 10 mg/kg BID oral gavage): 4.34 Log cfu/lungs | Log Reduction vs. Late Control ([5]; 10 mg/kg BID oral gavage, phosphate): 0.02 Log | Log Reduction vs. Early Control ([5]; 30 mg/kg BID oral gavage): 1.98 Log | Log Reduction vs. Late Control ([5]; 30 mg/kg BID oral gavage): 1.36 Log | Median Lung Burden ([5]; 30 mg/kg BID oral gavage): 3.00 Log cfu/lungs | Log Reduction vs. Early Control ([5]; 100 mg/kg BID oral gavage): 2.63 Log | Median Lung Burden ([5]; 100 mg/kg BID oral gavage): 2.35 Log cfu/lungs | Log Reduction vs. Late Control ([5]; 100 mg/kg BID oral gavage, phosphate): 2.02 Log and 2.01 Log | reduction of bacterial burdens versus the early control ([5]; doses of 10, 30, and 100 mg/kg BID): 0.64-2.63 logs | AUCextrap ([6]; Compound W PO 100 mg/kg): 437 ng·h/mL | t1/2 ([6]; Compound W PO 100 mg/kg): 5.31 h | t1/2 ([6]; Compound W PO 300 mg/kg): 13.15 h | AUCextrap ([7]; Compound W IV 1 mg/kg): 419 ng·h/mL | Cl_obs ([7]; Compound W IV 1 mg/kg): 46.7 mL/min/kg | Cmax/C0 ([7]; Compound W IV 1 mg/kg): 4800 ng/mL | Vss_obs ([7]; Compound W IV 1 mg/kg): 0.38 L/kg | AUCextrap ([7]; Compound W IV 5 mg/kg): 1120 ng·h/mL | Cl_obs ([7]; Compound W IV 5 mg/kg): 84.6 mL/min/kg | Cmax/C0 ([7]; Compound W IV 5 mg/kg): 9030 ng/mL | Vss_obs ([7]; Compound W IV 5 mg/kg): 5.8 L/kg | t1/2 ([8]; Compound W oral 30 mg/kg, 0.5% MC): 3.1 h | t1/2 ([8]; Compound W oral 100 mg/kg, 0.5% MC): 7.2 h | t1/2 ([8]; Compound W oral 300 mg/kg, 0.5% MC): 11.3 h | AUC ([8]; 30 mg/kg, Compound W oral 30 mg/kg, 0.5% MC): 58 ng·h/mL | AUC ([8]; 100 mg/kg, Compound W oral 100 mg/kg, 0.5% MC): 66 ng·h/mL | AUC ([8]; 300 mg/kg, Compound W oral 300 mg/kg, 0.5% MC): 464 ng·h/mL | AUC ([8]; 300 mg/kg, Compound W oral 300 mg/kg, 20% CAPT, 1% HPMC-AS, 1% PVP): 4270 ng·h/mL | in vivo conversion of prodrug into parent [9]: converted in vivo into Compound 23 | AUCextrap [10]: 5830 ng·h/mL | t1/2 [10]: 5.35 h

CCNC(=O)Nc1nc2cc(-c3cnc(C(C)(C)OP(=O)(O)O)nc3)c(F)c([C@H]3CCCO3)c2[nH]1 [Form C, (R)-2-(5-(2-(3-ethylureido)-6-fluoro-7-(tetrahydrofuran-2-yl)-1H-benzo[d]imidazol-5-yl)pyrimidin-2-yl)propan-2-yl dihydrogen phosphate]
Ki (S. aureus DNA gyrase): 27 nM | MIC [11]: 2 µg/mL | MIC ([1]; Staphylococcus aureus ATCC 29213 GyrB T173I): >16 µg/mL | MIC [1, 13]: 1 µg/mL and 2 µg/mL | MIC ([1]; Staphylococcus aureus, ATCC29213, Staphylococcus aureus ATCC 29213, read-out: MIC): 4 µg/mL | Ki (E. coli DNA Topo IV): < 6 nM | MIC (Haemophilus influenzae; read-out: MIC): 0.25 µg/mL | MIC (Escherichia coli AG100; Escherichia coli AG100 WT): >16 µg/mL and >8 µg/mL | Net % increase in total impurities ([2]; 17 days, listed as C): 0.18% | MIC [4, 14]: 4 µg/mL

CCNC(=O)Nc1nc2cc(-c3cnc(C(C)(C)OP(=O)(O)O)nc3)c(F)c([C@H]3CCCO3)c2[nH]1 [Form A, (R)-2-(5-(2-(3-ethylureido)-6-fluoro-7-(tetrahydrofuran-2-yl)-1H-benzo[d]imidazol-5-yl)pyrimidin-2-yl)propan-2-yl dihydrogen phosphate]
Ki (S. aureus DNA gyrase): 26 nM | MIC [1, 12]: 4 µg/mL | MIC ([1]; Staphylococcus aureus, ATCC29213, Staphylococcus aureus ATCC 29213 with 50% Mouse Serum, read-out: MIC): 1 µg/mL | Ki (E. coli DNA Topo IV): 11 nM | MIC (Haemophilus influenzae): 0.25 µg/mL | MIC (Escherichia coli AG100; Escherichia coli AG100 WT): >8 µg/mL | MIC (Escherichia coli AG100; Escherichia coli AG100 tolC): >8 µg/mL | Net % increase in total impurities ([2]; 15 days): 0.07% | water content of fully hydrated form (vapor sorption isotherm) ([3]; vapor sorption, 25° C.): about 6 weight % | MIC ([4]; ATCC49624, Enterococcus faecium ATCC 49624 with 3% Laked Horse Blood, read-out: MIC): 4 µg/mL | Ki (S. aureus DNA Topo IV): < 4 nM
